Literature values, collected in patent publication US20040219231A1, “Production of concentrated biocidal solutions” (priority 2000, published 2004).

Key:
[1] = not given; remark: listed apart in the source

Compound	solubility in water	Vapor Pressure (25° C.) [1]
CC1(C)C(=O)N(Cl)C(=O)N1Br [BCDMH, 1,3-bromochloro-5,5-dimethylhydantoin]	around 0.15%	–
BrBr [Bromine (Br2), Bromine]	–	214 mm
ClBr [Bromine Chloride (BrCl), Bromine Chloride]	–	1800 mm
